According to patent US10913781B2, “Pepducin design and use” (Tufts Medical Center, Inc., priority 2011, dated 2021):

Assays:
Assay type in all cases: cell-based
[1] = target: T1, PAR2-homodimers (Homo sapiens, UniProt P55085, Q172R/R173Q/R36A); experiment: Migration of HEK cells co-expressing PAR2-R36A and PAR2-RQ toward trypsin; details: 30 nM trypsin; 18 h
T1 construct: expressed in transfected cells; host or cells: HEK
Protocol: (A) PAR2 antagonist pepducins P2pal-18S and P2pal-14GQ inhibit calcium flux induced by PAR2 (SLIGRL) (SEQ ID NO:4) but not PAR1 (TFLLRN) (SEQ ID NO:2) agonists. SW620 cells were stably transfected with PAR1 and pretreated for 1 min with various concentrations of P2pal-18S or P2pal-14GQ and then stimulated with 30 μM PAR agonist. […] Cells were stimulated with 1 μM TFLLRN (SEQ ID NO:2), 1 μM SLIGRL (SEQ ID NO:4) or 100 μM AYPGKF (SEQ ID NO:5) and [^3H]-InsP formation measured over 30 min. (C) SW620 cells were treated with the indicated concentrations of P2pal-18S or P2pal-14GQ in the upper well of an 8-μm pore Boyden chamber and allowed to migrate for 18 h towards 10 μM of the PAR2 specific agonist SLIGRL in the lower chamber. The migration to RPMI/0.1% FBS represents random migration. (D) Migration of HEK cells transiently transfected with PAR2 (wild-type, WT), or PAR2-R36A/PAR2-RQ toward chemotactic gradients of 30 nM trypsin in the absence or presence of the indicated concentration of P2pal-18S for 18 h in a transwell apparatus ([…]). Data (n=2-4) are mean±SEM. *, P<0.05 and **, P<0.005.
To provide functional evidence that one PAR2 receptor can interact with an adjacent PAR2 receptor, a signaling dead PAR2-RQ mutant was constructed by transposing residues at Q172 and R173 located in the critical ‘DRY’ TM3 motif (FIG. 1A, the second set of sequence labeled as “QR->RQ”). […]

[2] = target: T2, PAR4 (Homo sapiens, UniProt Q96RI0); experiment: Human neutrophil chemotaxis to AYPGKF; design: endogenous in cells; host or cells: human peripheral blood neutrophils; details: 100 μM AYPGKF
T2 sequence (Q96RI0 18-385): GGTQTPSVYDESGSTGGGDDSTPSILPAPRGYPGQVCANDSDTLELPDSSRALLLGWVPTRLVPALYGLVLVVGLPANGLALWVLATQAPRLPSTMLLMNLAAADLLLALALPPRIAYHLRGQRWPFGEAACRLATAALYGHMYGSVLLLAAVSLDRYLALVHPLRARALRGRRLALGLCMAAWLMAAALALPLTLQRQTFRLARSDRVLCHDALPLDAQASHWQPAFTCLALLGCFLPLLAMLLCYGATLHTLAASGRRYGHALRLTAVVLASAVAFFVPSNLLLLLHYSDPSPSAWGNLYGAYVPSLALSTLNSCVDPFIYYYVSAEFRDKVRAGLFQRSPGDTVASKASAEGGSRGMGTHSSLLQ
Protocol: (A) Human neutrophils (n=4 normal volunteers) were analyzed for surface expression of human PAR1, PAR2, and PAR4 by flow cytometry with PAR-specific antibodies. […] Chemotaxis index is the ratio of directed versus random migration over 30 min through a 5-μm pore filter.
P2pal-18S had no effect on PAR1-dependent platelet aggregation (FIG. 5A). Neither P2pal-18S nor P2pal-14GQ caused membrane disruption or apoptosis as assessed by propidium iodide uptake in SW620 cells with up to 30 μM concentrations of pepducin (FIG. 5B).

[3] = target: PAR2 (Homo sapiens, UniProt P55085); experiment: Human neutrophil chemotaxis toward mast cell conditioned media (PAR2 pepducin); design: SW620 colon adenocarcinoma cells that endogenously express PAR2; endogenous in cells; host or cells: SW620 (in A7 the SW620 cells were additionally stably transfected with PAR1); details: 1 mM P2pal-18S; 30 min
Protocol: (A) Mast cells were treated with 2 mg/mL of mast cell degranulating agent 48/80 or 2% 1-carrageenan/4% kaolin. […] (B) P2pal-18S inhibits human neutrophil chemotaxis (n=6) to mast cell media. Human neutrophils were incubated with […] P2pal-18S, or […] mast cell tryptase inhibitor APC-366 and allowed to migrate 30 min toward CM from mast cells. (C) C57BL/6 mice (n=5) were pretreated with the tryptase inhibitor APC-366 (5 mg/kg, s.c.) or vehicle (20% DMSO) and then challenged with intraplantar injection of 1-carrageenan/kaolin. (D) Mast cell conditioned media (30 μL of 1-carrageenan/kaolin stimulated media) was injected into the hindpaws of C57BL/6 mice treated with 10 mg/kg P2pal-18S or vehicle (n=5). Data represent mean±SEM. #, P=0.07, *, P<0.05 and **, P<0.005. (E) Mast cell-deficient mice have a significant reduction in 1-carrageenan/kaolin induced paw edema (8 h time point, n=4-6) as compared to littermate controls. Mast-cell deficient mice or littermate controls with intact mast cells were treated with P2pal-18S (10 mg/kg, s.c.) or vehicle and hind paws challenged with 1-carrageenan/kaolin irritant. Error bars represent mean±SEM. […]

T1 sequence (P55085 26-397 R36A): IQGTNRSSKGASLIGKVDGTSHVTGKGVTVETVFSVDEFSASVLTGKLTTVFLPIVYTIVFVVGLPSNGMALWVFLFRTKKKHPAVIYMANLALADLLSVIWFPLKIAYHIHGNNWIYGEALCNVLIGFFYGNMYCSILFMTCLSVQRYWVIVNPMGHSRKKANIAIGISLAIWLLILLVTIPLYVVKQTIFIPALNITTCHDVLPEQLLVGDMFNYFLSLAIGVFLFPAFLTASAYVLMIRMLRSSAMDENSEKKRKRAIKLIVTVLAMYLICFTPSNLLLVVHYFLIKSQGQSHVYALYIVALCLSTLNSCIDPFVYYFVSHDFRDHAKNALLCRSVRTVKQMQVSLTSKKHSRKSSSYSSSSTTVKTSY
T1 sequence (P55085 37-397 Q172R/R173Q): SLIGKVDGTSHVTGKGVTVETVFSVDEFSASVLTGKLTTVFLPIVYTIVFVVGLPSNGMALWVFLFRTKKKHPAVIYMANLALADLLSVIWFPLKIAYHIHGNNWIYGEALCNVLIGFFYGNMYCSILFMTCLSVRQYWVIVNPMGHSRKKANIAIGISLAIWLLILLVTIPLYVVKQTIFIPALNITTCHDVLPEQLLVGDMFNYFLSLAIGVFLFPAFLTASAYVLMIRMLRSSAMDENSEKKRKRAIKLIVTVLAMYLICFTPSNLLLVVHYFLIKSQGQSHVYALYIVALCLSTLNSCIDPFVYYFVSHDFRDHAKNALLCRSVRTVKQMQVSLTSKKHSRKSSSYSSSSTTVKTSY
PAR2, sequence (P55085 26-397): as the sequence (P55085 26-397 R36A) above, with A11R counted along it

## CCCCCCCCCCCCCCCC(=O)N[C@@H](CCCNC(=N)N)C(=O)N[C@@H](CO)C(=O)N[C@@H](CO)C(=O)N[C@@H](C)C(=O)N[C@@H](CCSC)C(=O)N[C@@H](CC(=O)O)C(=O)N[C@@H](CCC(=O)O)C(=O)N[C@@H](CC(N)=O)C(=O)N[C@@H](CO)C(=O)N[C@@H](CCC(=O)O)C(=O)N[C@@H](CCCCN)C(=O)N[C@@H](CCCCN)C(=O)N[C@@H](CCCNC(=N)N)C(=O)N[C@@H](CCCCN)C(=O)N[C@@H](CO)C(=O)N[C@@H](C)C(=O)N[C@H](C(=O)N[C@@H](CCCCN)C(N)=O)[C@@H](C)CC [P2pal-18S]
[1]
  Suppression of chemotactic migration (transactivation of PAR2-homodimers): complete suppression
[2]
  Antagonist activity, neutrophil chemotaxis, PAR4: no antagonist activity
[3]
  Inhibition of chemotactic migration toward tryptase-containing mast cell media: completely inhibited
